Results taken from the kinase profiling compilation of Christmann-Franck et al. (2016).

Columns and labels:
Assay in all cases: radiometric filter-binding kinase assay, Kinase HotSpot
Conditions in all cases: compound 0.5 µM; ATP 10 µM
FLT3 (human) = FLT3 (human) (UniProt P36888)
STK17A (human) = STK17A (human) (UniProt Q9UEE5)
CSNK1D (human) = CSNK1D (human) (UniProt P48730)
EPHB1 (human) = EPHB1 (human) (UniProt P54762)
ITK (human) = ITK (human) (UniProt Q08881)
MARK1 (human) = MARK1 (human) (UniProt Q9P0L2)
CDC42BPA (human) = CDC42BPA (human) (UniProt Q5VT25)
CDC42BPA (human), sequence (Q5VT25 whole entry, looked up): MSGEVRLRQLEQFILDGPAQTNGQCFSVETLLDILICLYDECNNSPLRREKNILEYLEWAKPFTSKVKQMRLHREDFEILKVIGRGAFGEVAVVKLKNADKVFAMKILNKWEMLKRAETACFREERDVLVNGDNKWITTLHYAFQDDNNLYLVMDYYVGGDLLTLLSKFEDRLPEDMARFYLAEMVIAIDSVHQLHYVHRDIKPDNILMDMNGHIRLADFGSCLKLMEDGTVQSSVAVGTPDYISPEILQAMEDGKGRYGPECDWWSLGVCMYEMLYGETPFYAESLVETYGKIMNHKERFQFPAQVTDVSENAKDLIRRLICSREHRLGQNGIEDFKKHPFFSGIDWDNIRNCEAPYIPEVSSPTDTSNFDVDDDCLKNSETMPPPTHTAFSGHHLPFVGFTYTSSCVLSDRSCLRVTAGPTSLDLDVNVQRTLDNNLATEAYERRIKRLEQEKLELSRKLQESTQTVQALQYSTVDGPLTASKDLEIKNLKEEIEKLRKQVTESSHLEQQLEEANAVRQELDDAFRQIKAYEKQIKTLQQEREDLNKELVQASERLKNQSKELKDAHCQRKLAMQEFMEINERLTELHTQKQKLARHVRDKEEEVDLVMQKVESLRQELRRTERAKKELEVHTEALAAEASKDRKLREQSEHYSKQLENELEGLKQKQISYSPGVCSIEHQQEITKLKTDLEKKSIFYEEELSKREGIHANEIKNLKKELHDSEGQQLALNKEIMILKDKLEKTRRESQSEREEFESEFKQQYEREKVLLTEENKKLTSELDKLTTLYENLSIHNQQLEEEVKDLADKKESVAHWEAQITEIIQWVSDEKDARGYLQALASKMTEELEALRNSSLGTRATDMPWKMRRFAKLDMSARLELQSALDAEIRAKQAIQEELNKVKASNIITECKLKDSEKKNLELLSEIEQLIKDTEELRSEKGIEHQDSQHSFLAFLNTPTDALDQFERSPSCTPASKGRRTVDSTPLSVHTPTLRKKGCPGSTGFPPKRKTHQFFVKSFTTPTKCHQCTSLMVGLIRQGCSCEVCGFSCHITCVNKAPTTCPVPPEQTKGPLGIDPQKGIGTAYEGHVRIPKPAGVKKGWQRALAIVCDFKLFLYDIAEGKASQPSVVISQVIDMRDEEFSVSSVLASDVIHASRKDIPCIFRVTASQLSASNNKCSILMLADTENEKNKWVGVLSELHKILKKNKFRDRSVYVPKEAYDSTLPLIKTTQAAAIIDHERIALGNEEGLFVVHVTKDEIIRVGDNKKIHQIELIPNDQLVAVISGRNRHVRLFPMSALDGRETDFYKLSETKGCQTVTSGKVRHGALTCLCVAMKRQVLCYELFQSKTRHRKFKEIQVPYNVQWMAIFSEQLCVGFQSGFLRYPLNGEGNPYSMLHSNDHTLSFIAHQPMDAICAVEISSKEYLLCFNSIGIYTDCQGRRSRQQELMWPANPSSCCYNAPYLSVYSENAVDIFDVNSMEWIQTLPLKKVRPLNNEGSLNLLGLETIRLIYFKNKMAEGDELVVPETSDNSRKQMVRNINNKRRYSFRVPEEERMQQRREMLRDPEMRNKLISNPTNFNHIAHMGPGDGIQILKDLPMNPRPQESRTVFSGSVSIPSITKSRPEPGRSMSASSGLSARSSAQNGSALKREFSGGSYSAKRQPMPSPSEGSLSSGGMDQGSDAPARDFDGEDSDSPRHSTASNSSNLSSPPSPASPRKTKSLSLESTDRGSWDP

JAK3 JH1 JH2 (human) = JAK3 JH1 JH2 (human) (UniProt P52333)
PKN1 (human) = PKN1 (human) (UniProt Q16512)
PAK7 (human) = PAK7 (human) (UniProt Q9P286)
BRAF (human) = BRAF (human) (UniProt P15056)
BRAF (human), sequence (P15056 whole entry, looked up): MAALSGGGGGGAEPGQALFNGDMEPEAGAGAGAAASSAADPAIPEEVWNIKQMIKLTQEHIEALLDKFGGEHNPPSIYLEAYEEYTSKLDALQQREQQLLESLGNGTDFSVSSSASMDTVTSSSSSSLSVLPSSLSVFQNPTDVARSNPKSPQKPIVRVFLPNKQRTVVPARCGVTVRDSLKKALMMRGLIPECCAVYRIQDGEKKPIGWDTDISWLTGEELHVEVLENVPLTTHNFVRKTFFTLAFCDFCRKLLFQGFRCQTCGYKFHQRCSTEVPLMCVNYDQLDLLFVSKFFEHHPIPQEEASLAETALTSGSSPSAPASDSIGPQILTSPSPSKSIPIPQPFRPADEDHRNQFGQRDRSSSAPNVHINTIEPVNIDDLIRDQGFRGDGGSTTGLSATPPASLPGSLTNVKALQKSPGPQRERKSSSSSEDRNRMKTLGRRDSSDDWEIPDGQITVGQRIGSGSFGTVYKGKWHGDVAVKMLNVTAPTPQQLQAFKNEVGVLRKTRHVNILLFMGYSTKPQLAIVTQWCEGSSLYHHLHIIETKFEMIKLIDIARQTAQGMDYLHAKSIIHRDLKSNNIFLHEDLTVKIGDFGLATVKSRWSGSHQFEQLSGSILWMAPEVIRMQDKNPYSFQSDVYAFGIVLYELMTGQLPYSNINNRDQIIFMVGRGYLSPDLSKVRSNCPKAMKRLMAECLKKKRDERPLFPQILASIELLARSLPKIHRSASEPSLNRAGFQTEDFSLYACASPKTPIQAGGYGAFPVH

PIM3 (human) = PIM3 (human) (UniProt Q86V86)
MAP3K8 (human) = MAP3K8 (human) (UniProt P41279)
MAP3K8 (human), sequence (P41279 whole entry, looked up): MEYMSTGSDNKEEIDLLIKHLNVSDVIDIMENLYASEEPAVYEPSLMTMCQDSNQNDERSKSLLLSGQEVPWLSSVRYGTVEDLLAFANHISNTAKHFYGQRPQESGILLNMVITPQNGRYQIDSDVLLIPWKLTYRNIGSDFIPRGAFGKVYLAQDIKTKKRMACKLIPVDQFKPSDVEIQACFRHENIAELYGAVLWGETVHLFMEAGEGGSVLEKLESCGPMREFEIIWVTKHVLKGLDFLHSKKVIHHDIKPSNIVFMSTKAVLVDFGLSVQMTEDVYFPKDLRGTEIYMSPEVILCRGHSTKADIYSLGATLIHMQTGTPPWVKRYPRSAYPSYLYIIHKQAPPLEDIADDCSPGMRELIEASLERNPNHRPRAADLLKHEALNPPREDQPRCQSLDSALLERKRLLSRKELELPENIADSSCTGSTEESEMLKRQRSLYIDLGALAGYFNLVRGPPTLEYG

CAMK2A (human) = CAMK2A (human) (UniProt Q9UQM7)
CAMK2A (human), sequence (Q9UQM7 whole entry, looked up): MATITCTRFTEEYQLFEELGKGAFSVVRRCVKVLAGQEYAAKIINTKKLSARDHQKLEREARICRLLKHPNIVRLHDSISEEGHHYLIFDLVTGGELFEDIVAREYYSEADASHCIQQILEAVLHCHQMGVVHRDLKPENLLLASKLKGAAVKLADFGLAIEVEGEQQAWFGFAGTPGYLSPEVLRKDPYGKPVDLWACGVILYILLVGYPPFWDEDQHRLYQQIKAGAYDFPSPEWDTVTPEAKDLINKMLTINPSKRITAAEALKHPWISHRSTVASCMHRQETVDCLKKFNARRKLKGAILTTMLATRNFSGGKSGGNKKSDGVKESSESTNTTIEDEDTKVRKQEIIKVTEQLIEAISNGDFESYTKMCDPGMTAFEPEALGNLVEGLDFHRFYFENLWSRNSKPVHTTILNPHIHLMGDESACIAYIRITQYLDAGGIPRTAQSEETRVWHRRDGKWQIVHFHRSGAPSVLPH

MAPK8 (human) = MAPK8 (human) (UniProt P45983)
HIPK4 (human) = HIPK4 (human) (UniProt Q8NE63)
CSK (human) = CSK (human) (UniProt P41240)
INSR (human) = INSR (human) (UniProt P06213)
AURKC (human) = AURKC (human) (UniProt Q9UQB9)
AURKC (human), sequence (Q9UQB9 whole entry, looked up): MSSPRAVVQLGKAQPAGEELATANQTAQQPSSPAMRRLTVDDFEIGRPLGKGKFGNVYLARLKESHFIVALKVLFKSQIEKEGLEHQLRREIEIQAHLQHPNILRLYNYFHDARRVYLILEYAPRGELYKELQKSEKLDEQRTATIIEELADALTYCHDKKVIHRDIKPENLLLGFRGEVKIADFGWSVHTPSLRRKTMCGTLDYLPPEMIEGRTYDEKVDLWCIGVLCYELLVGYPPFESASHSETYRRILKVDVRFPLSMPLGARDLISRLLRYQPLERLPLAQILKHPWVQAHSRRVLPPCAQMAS

MAP3K3 (human) = MAP3K3 (human) (UniProt Q99759)
CSNK1G3 (human) = CSNK1G3 (human) (UniProt Q9Y6M4)
SGK3 (human) = SGK3 (human) (UniProt Q96BR1)
LRRK2 (human) = LRRK2 (human) (UniProt Q5S007)
PAK6 (human) = PAK6 (human) (UniProt Q9NQU5)
TGFBR1 (human) = TGFBR1 (human) (UniProt P36897)
MUSK (human) = MUSK (human) (UniProt O15146)
LIMK1 (human) = LIMK1 (human) (UniProt P53667)
CDK2 CCNE1 (human) = CDK2 CCNE1 (human) (UniProt P24941+P24864)
CDK4 CCND3 (human) = CDK4 CCND3 (human) (UniProt P30281+P11802)
CDK4 CCND3 (human), sequence (P11802 whole entry, looked up): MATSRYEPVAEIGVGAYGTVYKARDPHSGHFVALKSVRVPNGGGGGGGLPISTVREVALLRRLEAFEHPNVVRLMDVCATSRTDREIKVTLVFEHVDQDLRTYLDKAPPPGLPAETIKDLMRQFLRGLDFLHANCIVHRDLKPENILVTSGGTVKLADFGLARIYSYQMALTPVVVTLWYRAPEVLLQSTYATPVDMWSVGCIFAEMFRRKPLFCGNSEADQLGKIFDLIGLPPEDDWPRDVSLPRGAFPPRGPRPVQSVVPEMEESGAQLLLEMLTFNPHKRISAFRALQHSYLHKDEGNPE
CDK4 CCND3 (human), sequence (P30281 whole entry, looked up): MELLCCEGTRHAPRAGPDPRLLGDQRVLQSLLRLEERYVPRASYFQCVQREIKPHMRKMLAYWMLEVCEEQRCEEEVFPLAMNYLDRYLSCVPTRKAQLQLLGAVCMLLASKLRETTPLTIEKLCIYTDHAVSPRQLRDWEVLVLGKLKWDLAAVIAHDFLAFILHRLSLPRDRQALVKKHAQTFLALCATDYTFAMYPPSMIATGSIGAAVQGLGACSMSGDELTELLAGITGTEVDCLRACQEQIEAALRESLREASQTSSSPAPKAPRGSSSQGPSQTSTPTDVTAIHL

EPHB2 (human) = EPHB2 (human) (UniProt P29323)
MATK (human) = MATK (human) (UniProt P42679)
GSG2 (human) = GSG2 (human) (UniProt Q8TF76)
AURKA (human) = AURKA (human) (UniProt O14965)
MARK3 (human) = MARK3 (human) (UniProt P27448)
CDK5 CDK5R1 p25 (human) = CDK5 CDK5R1 p25 (human) (UniProt Q00535+Q15078)
STK10 (human) = STK10 (human) (UniProt O94804)
ULK2 (human) = ULK2 (human) (UniProt Q8IYT8)
MELK (human) = MELK (human) (UniProt Q14680)
MAP3K9 (human) = MAP3K9 (human) (UniProt P80192)
NUAK1 (human) = NUAK1 (human) (UniProt O60285)
DSTYK (human) = DSTYK (human) (UniProt Q6XUX3)

Compound: CCC(=O)Nc1ccc2ncnc(Nc3cccc(Br)c3)c2c1
- residual activity (FLT3 (human)): 94.1%
- residual activity (STK17A (human)): 88.7%
- residual activity (CSNK1D (human)): 96.9%
- residual activity (EPHB1 (human)): 93.3%
- residual activity (ITK (human)): 89.7%
- residual activity (MARK1 (human)): 98.5%
- residual activity (CDC42BPA (human)): 101%
- residual activity (JAK3 JH1 JH2 (human)): 98.3%
- residual activity (PKN1 (human)): 101%
- residual activity (PAK7 (human)): 91.6%
- residual activity (BRAF (human)): 93%
- residual activity (PIM3 (human)): 76.6%
- residual activity (MAP3K8 (human)): 93%
- residual activity (CAMK2A (human)): 85.7%
- residual activity (MAPK8 (human)): 73.7%
- residual activity (HIPK4 (human)): 87.8%
- residual activity (CSK (human)): 89.5%
- residual activity (INSR (human)): 101%
- residual activity (AURKC (human)): 102%
- residual activity (MAP3K3 (human)): 89.8%
- residual activity (CSNK1G3 (human)): 91.6%
- residual activity (SGK3 (human)): 92.8%
- residual activity (LRRK2 (human)): 92.4%
- residual activity (PAK6 (human)): 101%
- residual activity (TGFBR1 (human)): 101%
- residual activity (MUSK (human)): 87.8%
- residual activity (LIMK1 (human)): 88.7%
- residual activity (CDK2 CCNE1 (human)): 84.9%
- residual activity (CDK4 CCND3 (human)): 90.4%
- residual activity (EPHB2 (human)): 95.1%
- residual activity (MATK (human)): 93.4%
- residual activity (GSG2 (human)): 95.2%
- residual activity (AURKA (human)): 97.4%
- residual activity (MARK3 (human)): 86.1%
- residual activity (CDK5 CDK5R1 p25 (human)): 78.4%
- residual activity (STK10 (human)): 68.7%
- residual activity (ULK2 (human)): 118%
- residual activity (MELK (human)): 93.4%
- residual activity (MAP3K9 (human)): 92.7%
- residual activity (NUAK1 (human)): 87.3%
- residual activity (DSTYK (human)): 91.3%

Compound: Nc1ncnc2c1c(-c1ccc(Oc3ccccc3)cc1)cn2C1CCCC1
- residual activity (FLT3 (human)): 4.48%
- residual activity (STK17A (human)): 96.3%
- residual activity (CSNK1D (human)): 85.1%
- residual activity (EPHB1 (human)): 94.5%
- residual activity (ITK (human)): 87.1%
- residual activity (MARK1 (human)): 94.1%
- residual activity (CDC42BPA (human)): 105%
- residual activity (JAK3 JH1 JH2 (human)): 105%
- residual activity (PKN1 (human)): 104%
- residual activity (PAK7 (human)): 102%
- residual activity (BRAF (human)): 85.4%
- residual activity (PIM3 (human)): 98.7%
- residual activity (MAP3K8 (human)): 83.3%
- residual activity (CAMK2A (human)): 113%
- residual activity (MAPK8 (human)): 117%
- residual activity (HIPK4 (human)): 102%
- residual activity (CSK (human)): 3.4%
- residual activity (INSR (human)): 103%
- residual activity (AURKC (human)): 95%
- residual activity (MAP3K3 (human)): 71.2%
- residual activity (CSNK1G3 (human)): 99.5%
- residual activity (SGK3 (human)): 112%
- residual activity (LRRK2 (human)): 86.2%
- residual activity (PAK6 (human)): 88.2%
- residual activity (TGFBR1 (human)): 96.1%
- residual activity (MUSK (human)): 115%
- residual activity (LIMK1 (human)): 95.7%
- residual activity (CDK2 CCNE1 (human)): 91.3%
- residual activity (CDK4 CCND3 (human)): 108%
- residual activity (EPHB2 (human)): 90.5%
- residual activity (MATK (human)): 90%
- residual activity (GSG2 (human)): 94.6%
- residual activity (AURKA (human)): 76.5%
- residual activity (MARK3 (human)): 89.8%
- residual activity (STK10 (human)): 73.1%
- residual activity (ULK2 (human)): 125%
- residual activity (MELK (human)): 101%
- residual activity (MAP3K9 (human)): 103%
- residual activity (NUAK1 (human)): 87%
- residual activity (DSTYK (human)): 100%
